Experimental data from patent EP0943339A2, “Method of preventing allograft rejection” (priority 1998, dated 1999).

Tested on: acute allograft rejection
Test: murine cardiac ear pinna model of acute allograft rejection (non-vascularized cardiac tissue transplantation)
Assay type: in vivo
Conditions: for Graft Survival Mean ± Std Dev: monotherapy, day 0 to 17
Source text: In Vivo Murine Cardiac Ear Pinnae Model of Transplatation
• Methods: A rapid, facile 2-week murine bioassay of non-vascularized cardiac tissue transplantation,t he murine cardiac ear pinna model of acute allograft rejection, was used to evaluate the dose-response relationship of immunosuppressive drugs on allograft rejection. In this model, donor BALB/C (N2^d) neonatal hearts are transplanted into recipient C3H/HeN (H2^k) ear pinna pouches without vacular anastomoses. […] All compounds are given on day 0 to 17 COMPOUND P [(+)-2-[3,4-dihydro(3S,4R)-4-hydroxy-3-(4-phenyl-phenylmethyl)-7-(2H, 1-benzopyran)]cyclopentane carboxylic acid] was given orally in 0.5% Methylcellulose. […] Grafts were assessed by visual examination for contraction on alternate days (from 6 to 18) and graft survival was defined as the post-transplant day on which contractions cease. Efficacy data from day 6 to 18 is presented as mean survival days (±SD) and was analyzed by Log Rank Analysis. Graft survival values were deterined at day 18. […] The studies were performed at Stanford Medical Ceter in a collaborative grant with Randall Morris, MD. […]

SMILES: COc1c(C)c2c(c(O)c1C/C=C(\C)CCC(=O)O)C(=O)OC2 [MPA]
- Graft Survival Mean ± Std Dev (MPA 100 mg/kg/d, survival assessed to day 18): 13.6 ± 1.9 days
- Graft Survival Mean ± Std Dev (MPA 150 mg/kg/d, survival assessed to day 18): 16.6 ± 1.9 days

SMILES: C=CC[C@@H]1/C=C(\C)C[C@H](C)C[C@H](OC)[C@H]2O[C@@](O)(C(=O)C(=O)N3CCCC[C@H]3C(=O)O[C@H](/C(C)=C/[C@@H]3CC[C@@H](O)[C@H](OC)C3)[C@H](C)[C@@H](O)CC1=O)[C@H](C)C[C@@H]2OC (relative stereo) [FK506, [3S-[3R*[E(1S*,3S*,4S*)], 4S*, 5R*, 8S*, 9E, 12R*, 14R*, 15S*, 16R*, 18S*, 19S*, 26aR*]]-5,6,8,11,12,13,14,15,16,17,18,19,24,25,26,26a-Hexadeachydro-5,19-dihydroxy-3-[2-(4-hydroxy-3-[2-(4-hydroxy-3-methoxycyclohexyl)-1-methyl-ethenyl]-14,16-dimethoxy-4,10,12,18-tetramethyl-8-(2-propenyl)-15,19-epoxy-3H-pyrido[2,1-c][1,4]oxaazacyclotricosine-1,7,20,21(4H,23H)-tetrone]
- Graft Survival Mean ± Std Dev (FK506 0.2 mg/kg/d intraperitoneal, survival assessed to day 18): 11.6 ± 1.3 days
- Graft Survival Mean ± Std Dev (FK506 0.4 mg/kg/d intraperitoneal, survival assessed to day 18): 12.4 ± 0.9 days
- Graft Survival Mean ± Std Dev (FK506 0.6 mg/kg/d intraperitoneal, grafts surviving at day 18 censored): >16.9 ± 1.8 days
- Graft Survival Mean ± Std Dev (FK506 0.8 mg/kg/d intraperitoneal, grafts surviving at day 18 censored): >17.8 ± 0.6 days

SMILES: O=C(O)C1CCCC1c1ccc2c(c1)OC[C@H](Cc1ccc(-c3ccccc3)cc1)[C@H]2O (single isomer, unassigned; (+)) [COMPOUND P]
- efficacy as a single agent in acute rejection (highest dose, 300 mg/kg/d): significant (p<0.01)
- Graft Survival Mean ± Std Dev (COMPOUND P 30 mg/kg/d orally, survival assessed to day 18): 11.0 ± 1.1 days
- Graft Survival Mean ± Std Dev (COMPOUND P 100 mg/kg/d orally, survival assessed to day 18): 10.3 ± 0.7 days
- Graft Survival Mean ± Std Dev (COMPOUND P 200 mg/kg/d orally, survival assessed to day 18): 10.3 ± 0.7 days
- Graft Survival Mean ± Std Dev (COMPOUND P 300 mg/kg/d orally, survival assessed to day 18): 11.8 ± 1.1 days
